Here are results for 16 compounds from patent US20240252651A1, “METHOD OF DELIVERING NUCLEIC ACIDS INTO CELLS” (GUANGZHOU LIDE BIOMEDICINE TECHNOLOGY CO., LTD., priority 2021, published 2024).

SMILES strings stand for the structures. Entries after “also recorded” stand apart in the source; their conditions may differ.

In test [1] the test system is Hela cells. Nature of the test: Transfection of luciferase-expressing plasmid DNA in HeLa cells (luciferase expression). The format is cell-based, human. To be noted: plasmid DNA 0.5 μg, 24 h, luciferase expression level, FIG. 5. How it is done:
In this example, with luciferase-expressing plasmid DNA as a reporter gene, a gene transfection efficiency of a cationic lipid analog material in HeLa cells was detected. A specific operation method was as follows: Hela cells were inoculated in a 96-well plate and cultured in an incubator for 12 h; each of different cationic lipid analog materials was mixed with luciferase-expressing plasmid DNA (0.5 μg) in 40 μL of a sodium acetate buffer (25 mM, pH 5.2), and resulting mixtures each were allowed to stand for 10 min and then diluted with 460 μL of an Opti-MEM medium to obtain plasmid DNA-loaded cationic lipid analog complex particle solutions; a medium for the Hela cells in the plate was removed, then the Hela cells were washed once with PBS, and the complex particle solutions were added in a volume of 125 μL; the cells were cultured for 24 h, then a resulting culture supernatant was discarded, and the cells were fully lysed; and a substrate was added at 50 μl/well, and an expression level of luciferase was detected by a multi-mode microplate reader.

Another test concerns DC 2.4 cells. Nature of the test: Transfection of eGFP-mRNA in DC 2.4 cells (FCM and LSCM). The settings on record: mRNA 0.2 μg/well, material 0.25 to 2 μg/well (dosages per FIG. 7), 24 h. The class given is cell-based, mouse. The procedure:
In this experiment, with eGFP-mRNA as model mRNA, an mRNA transfection efficiency of a cationic lipid analog material in DC 2.4 cells was detected. A specific operation method was as follows:
DC 2.4 cells were inoculated in a 48-well plate and cultured in an incubator for 12 h; each of different cationic lipid analog materials (0.25 μg/well to 2 μg/well) was mixed with cGFP-expressing mRNA (0.2 μg/well) in 20 μL of a sodium acetate buffer (25 mM, pH 5.2), and resulting mixtures each were allowed to stand for 10 min and then diluted with 230 μL of a Opti-MEM medium to obtain mRNA-loaded complex particle solutions; a medium for the […] were washed once with PBS, and the complex particle solutions were added; and the cells were cultured for 24 h, an mRNA transfection efficiency in cells was observed by FCM and LSCM. A commercial gene transfection reagent Lipofectamine 2000 was adopted as a positive control.

The subject of test [2] is Hela cells. Description: Transfection of GFP-expressing plasmid DNA in Hela cells (flow cytometer). The class given is cell-based, human. To be noted: plasmid DNA 0.5 μg/well, material 0.25 to 8 μg/well (dosages per FIG. 4), 24 h. How it is done:
In this experiment, with GFP-expressing plasmid DNA as a reporter gene, a gene transfection efficiency of a cationic lipid analog material in Hela cells was detected. A specific method was as follows:
Hela cells were inoculated in a 24-well plate and cultured in an incubator for 12 h; each of different cationic lipid analog materials (0.25 μg/well to 8 μg/well) was mixed with GFP-expressing plasmid DNA (0.5 μg/well) in 40 μL of a sodium acetate buffer (25 mM, pH 5.2), and resulting mixtures each were allowed to stand for 10 min and then diluted with 460 μL of an Opti-MEM medium to obtain plasmid DNA-loaded cationic lipid analog complex particle solutions; a medium for the Hela cells in the plate was removed, then the HeLa cells were washed once with PBS, and the complex particle solutions were added; and the cells were cultured for 24 h, and then a plasmid DNA transfection efficiency in cells was analyzed by a flow cytometer. A commercial gene transfection reagent Lipofectamine 2000 was adopted as a positive control.
In general terms: In flow cytometry, cells or beads pass a laser one at a time.

For `CCCCCCCCCCCCCC(=O)N(CCCN(C)C)C(C(=O)NCCCCCCNC(=O)C(C(C)C)N(CCCN(C)C)C(=O)CCCCCCCCCCCCC)C(C)C` (stereo not drawn) [I1R2C14A1], in the test with Hela cells [1], the “transfection efficiency of luciferase-expressing plasmid DNA, compared with Lipofectamine 2000” value is recorded as “equivalent to or higher than”. In addition, the “mRNA transfection efficiency (eGFP-mRNA), compared with Lipofectamine 2000” value with DC 2.4 cells (FIG. 7-9) is on record as “high transfection efficiency”; with DC 2.4 cells (FIG. 7-9, listed as 11R2C14A1), “equivalent to or higher than”. Further, the “transfection efficiency of GFP-expressing plasmid DNA, compared with commercial transfection reagent Lipofectamine 2000” value with Hela cells [2] is given as “reaches or is higher than”; in the test with Hela cells [2] (listed as 11R2C14A1) it was “equivalent to or higher than”.
Turning to `CCCCCCCCCCCCCCCC(=O)N(CCCN(C)C)C(C(=O)NCCCCCCNC(=O)C(C(C)C)N(CCCN(C)C)C(=O)CCCCCCCCCCCCCCC)C(C)C` (stereo not drawn) [I1R2C16A1], in the test with DC 2.4 cells (FIG. 7-9, listed as 11R2C16A1), the “mRNA transfection efficiency (eGFP-mRNA), compared with Lipofectamine 2000” value is on record as “high transfection efficiency; also recorded: equivalent to or higher than”.
As to `CCCCCCCC/C=C\CCCCCCCC(=O)N(CCCN(C)C)C(C(=O)NCCCCCCNC(=O)C(C(C)C)N(CCCN(C)C)C(=O)CCCCCCC/C=C\CCCCCCCC)C(C)C` (stereo not drawn) [I1R2C18-1A1], the “mRNA transfection efficiency (eGFP-mRNA), compared with Lipofectamine 2000” value with DC 2.4 cells (FIG. 7-9, listed as 11R2C18-1A1) is listed as “high transfection efficiency; also recorded: equivalent to or higher than”.
In the case of `CCCCC/C=C\C/C=C\CCCCCCCC(=O)N(CCCN(C)C)C(C(=O)NCCCCCCNC(=O)C(C(C)C)N(CCCN(C)C)C(=O)CCCCCCC/C=C\C/C=C\CCCCC)C(C)C` (stereo not drawn) [I1R2C18-2A1], the “mRNA transfection efficiency (eGFP-mRNA), compared with Lipofectamine 2000” value in the test with DC 2.4 cells (FIG. 7-9) is “equivalent to or higher than”; in the test on DC 2.4 cells (FIG. 7-9, listed as 11R2C18-2A1), “high transfection efficiency”. Further, the “transfection efficiency of GFP-expressing plasmid DNA, compared with commercial transfection reagent Lipofectamine 2000” value in the test on Hela cells [2] is listed as “reaches or is higher than”; with Hela cells [2] (listed as 11R2C18-2A1), “equivalent to or higher than”.
For the compound `CCCCCCCCCCCCCCCCCC(=O)N(CCCN(C)C)C(C(=O)NCCCCCCNC(=O)C(C(C)C)N(CCCN(C)C)C(=O)CCCCCCCCCCCCCCCCC)C(C)C` (stereo not drawn) [I1R2C18A1], in the test with DC 2.4 cells (FIG. 7-9, listed as 11R2C18A1), the “mRNA transfection efficiency (eGFP-mRNA), compared with Lipofectamine 2000” value was “high transfection efficiency; also recorded: equivalent to or higher than”.
With `CCCCCCCCCCCCCC(=O)N(CCC1CCCN1C)C(C(=O)NCCCCCCNC(=O)C(C(C)C)N(CCC1CCCN1C)C(=O)CCCCCCCCCCCCC)C(C)C` (stereo not drawn) [I1R11C14A1], in the test with Hela cells [1], the “transfection efficiency of luciferase-expressing plasmid DNA, compared with Lipofectamine 2000” value is reported as “equivalent to or higher than”. Also, the “mRNA transfection efficiency (eGFP-mRNA), compared with Lipofectamine 2000” value with DC 2.4 cells (FIG. 7-9) was “high transfection efficiency; also recorded: equivalent to or higher than”. Besides, the “transfection efficiency of GFP-expressing plasmid DNA, compared with commercial transfection reagent Lipofectamine 2000” value with Hela cells [2] is recorded as “reaches or is higher than”; in the test on Hela cells [2] (listed as 11R11C14A1) it was “equivalent to or higher than”.
For `CCCCCCCCCCCCCCCC(=O)N(CCC1CCCN1C)C(C(=O)NCCCCCCNC(=O)C(C(C)C)N(CCC1CCCN1C)C(=O)CCCCCCCCCCCCCCC)C(C)C` (stereo not drawn) [I1R11C16A1], in the test on DC 2.4 cells (FIG. 7-9), the “mRNA transfection efficiency (eGFP-mRNA), compared with Lipofectamine 2000” value was “high transfection efficiency; also recorded: equivalent to or higher than”.
On to `CCCCCCCCCCCCCCCCCC(=O)N(CCC1CCCN1C)C(C(=O)NCCCCCCNC(=O)C(C(C)C)N(CCC1CCCN1C)C(=O)CCCCCCCCCCCCCCCCC)C(C)C` (stereo not drawn) [I1R11C18A1], for which the “mRNA transfection efficiency (eGFP-mRNA), compared with Lipofectamine 2000” value with DC 2.4 cells (FIG. 7-9, listed as 11R11C18A1) is given as “high transfection efficiency; also recorded: equivalent to or higher than”.
Consider `CCCCCCCCCCCCCC(=O)N(CCN(C)C)C(C(=O)NCCOCCOCCNC(=O)C(C(C)C)N(CCN(C)C)C(=O)CCCCCCCCCCCCC)C(C)C` (stereo not drawn) [I2R1C14A1], for which the “transfection efficiency of luciferase-expressing plasmid DNA, compared with Lipofectamine 2000” value with Hela cells [1] was “equivalent to or higher than”. For the same compound, the “mRNA transfection efficiency (eGFP-mRNA), compared with Lipofectamine 2000” value in the test on DC 2.4 cells (FIG. 7-9) was “high transfection efficiency; also recorded: equivalent to or higher than”. The “transfection efficiency of GFP-expressing plasmid DNA, compared with commercial transfection reagent Lipofectamine 2000” value with Hela cells [2] is recorded as “reaches or is higher than; also recorded: equivalent to or higher than”.
As to `CCCCC/C=C\C/C=C\CCCCCCCC(=O)N(CCN(C)C)C(C(=O)NCCOCCOCCNC(=O)C(C(C)C)N(CCN(C)C)C(=O)CCCCCCC/C=C\C/C=C\CCCCC)C(C)C` (stereo not drawn) [I2R1C18-2A1], in the test on Hela cells [2], the “transfection efficiency of GFP-expressing plasmid DNA, compared with commercial transfection reagent Lipofectamine 2000” value is reported as “reaches or is higher than; also recorded: equivalent to or higher than”.
`CCCCCCCCCCCCCC(=O)N(CCCN(C)C)C(C(=O)NCCOCCOCCNC(=O)C(C(C)C)N(CCCN(C)C)C(=O)CCCCCCCCCCCCC)C(C)C` (stereo not drawn) [I2R2C14A1]: in the test on DC 2.4 cells (FIG. 7-9), the “mRNA transfection efficiency (eGFP-mRNA), compared with Lipofectamine 2000” value is “high transfection efficiency; also recorded: equivalent to or higher than”. Also, the “transfection efficiency of GFP-expressing plasmid DNA, compared with commercial transfection reagent Lipofectamine 2000” value in the test on Hela cells [2] is on record as “reaches or is higher than; also recorded: equivalent to or higher than”.
Turning to `CCCCCCCCCCCCCC(=O)N(CCCN(CC)CC)C(C(=O)NCCOCCOCCNC(=O)C(C(C)C)N(CCCN(CC)CC)C(=O)CCCCCCCCCCCCC)C(C)C` (stereo not drawn) [I2R3C14A1], the “mRNA transfection efficiency (eGFP-mRNA), compared with Lipofectamine 2000” value with DC 2.4 cells (FIG. 7-9) is on record as “high transfection efficiency; also recorded: equivalent to or higher than”.
With `CCCCCCCCCCCCCC(=O)N(CCC1CCCN1C)C(C(=O)NCCOCCOCCNC(=O)C(C(C)C)N(CCC1CCCN1C)C(=O)CCCCCCCCCCCCC)C(C)C` (stereo not drawn) [I2R11C14A1], the “mRNA transfection efficiency (eGFP-mRNA), compared with Lipofectamine 2000” value in the test on DC 2.4 cells (FIG. 7-9) is “high transfection efficiency; also recorded: equivalent to or higher than”. The “transfection efficiency of GFP-expressing plasmid DNA, compared with commercial transfection reagent Lipofectamine 2000” value in the test with Hela cells [2] is reported as “reaches or is higher than; also recorded: equivalent to or higher than”.
For the compound `CCCCCCCCCCCCCCCC(=O)N(CCC1CCCN1C)C(C(=O)NCCOCCOCCNC(=O)C(C(C)C)N(CCC1CCCN1C)C(=O)CCCCCCCCCCCCCCC)C(C)C` (stereo not drawn) [I2R11C16A1], in the test on DC 2.4 cells (FIG. 7-9), the “mRNA transfection efficiency (eGFP-mRNA), compared with Lipofectamine 2000” value is “high transfection efficiency; also recorded: equivalent to or higher than”. Also, the “transfection efficiency of GFP-expressing plasmid DNA, compared with commercial transfection reagent Lipofectamine 2000” value with Hela cells [2] is given as “reaches or is higher than; also recorded: equivalent to or higher than”.
Regarding `CCCCCCCC/C=C\CCCCCCCC(=O)N(CCC1CCCN1C)C(C(=O)NCCOCCOCCNC(=O)C(C(C)C)N(CCC1CCCN1C)C(=O)CCCCCCC/C=C\CCCCCCCC)C(C)C` (stereo not drawn) [I2R11C18-1A1], the “mRNA transfection efficiency (eGFP-mRNA), compared with Lipofectamine 2000” value in the test on DC 2.4 cells (FIG. 7-9) is “high transfection efficiency; also recorded: equivalent to or higher than”. Moreover, the “transfection efficiency of GFP-expressing plasmid DNA, compared with commercial transfection reagent Lipofectamine 2000” value in the test on Hela cells [2] is “reaches or is higher than; also recorded: equivalent to or higher than”.
Consider `CCCCCCCCCCCCCCCCCC(=O)N(CCC1CCCN1C)C(C(=O)NCCOCCOCCNC(=O)C(C(C)C)N(CCC1CCCN1C)C(=O)CCCCCCCCCCCCCCCCC)C(C)C` (stereo not drawn) [I2R11C18A1], for which the “mRNA transfection efficiency (eGFP-mRNA), compared with Lipofectamine 2000” value in the test on DC 2.4 cells (FIG. 7-9) was “high transfection efficiency; also recorded: equivalent to or higher than”. Moreover, the “transfection efficiency of GFP-expressing plasmid DNA, compared with commercial transfection reagent Lipofectamine 2000” value in the test on Hela cells [2] was “reaches or is higher than; also recorded: equivalent to or higher than”.
